In patent publication US20240066037A1 (priority 2020, published 2024):
Like-named read-outs stand apart in the source and are kept apart here.

How the values were obtained:
SARS-CoV-1 (Toronto 2) = experiment: microbe, parasite or virus in culture; type: cell-based; conditions: for IC50: Severe acute respiratory syndrome coronavirus, Vero C1008, 72 h, read-out: Antiviral IC50
[1] = tested on: SARS-CoV-2 (USA_WA1/2020); experiment: microbe, parasite or virus in culture; type: cell-based; conditions: for IC50: Severe acute respiratory syndrome coronavirus 2, Vero C1008, 72 h, read-out: Antiviral IC50
MERS (EMC/2012) = experiment: microbe, parasite or virus in culture; type: cell-based; conditions: for IC50: Middle East respiratory syndrome-related coronavirus
[2] = tested on: SARS-CoV-2 (βCoV/KOR/KCDC03/2020); experiment: microbe, parasite or virus in culture; type: cell-based; conditions: for IC50: Severe acute respiratory syndrome coronavirus 2, Calu-3, 24 h
in vitro [3] = conditions: African green monkey
EBOV (Kikwit) = experiment: microbe, parasite or virus in culture; type: cell-based; conditions: Zaire ebolavirus, Vero
EBOV (Makona) [4] = experiment: microbe, parasite or virus in culture; type: cell-based; conditions: Zaire ebolavirus, HeLa
EBOV (Makona) [5] = experiment: microbe, parasite or virus in culture; type: cell-based; conditions: Zaire ebolavirus, Vero
MARV = experiment: organism not typed; type: cell-based; conditions: HeLa
MERS-CoV = experiment: microbe, parasite or virus in culture; type: cell-based; conditions: Middle East respiratory syndrome-related coronavirus, MRC5
NiV = experiment: organism not typed; type: cell-based; conditions: HeLa
LASV = experiment: organism not typed; type: cell-based; conditions: HeLa
HTNV = experiment: organism not typed; type: cell-based; conditions: Vero
WNV = experiment: microbe, parasite or virus in culture; type: cell-based; conditions: West Nile virus, HeLa
SARS-CoV-2 = type: cell-based
Cat V (L2) [6] = target: Cat V (L2) (Homo sapiens, UniProt O60911); conditions: cited from earlier work
Chain of Cat V (L2) (Homo sapiens, UniProt O60911) (O60911 114-334): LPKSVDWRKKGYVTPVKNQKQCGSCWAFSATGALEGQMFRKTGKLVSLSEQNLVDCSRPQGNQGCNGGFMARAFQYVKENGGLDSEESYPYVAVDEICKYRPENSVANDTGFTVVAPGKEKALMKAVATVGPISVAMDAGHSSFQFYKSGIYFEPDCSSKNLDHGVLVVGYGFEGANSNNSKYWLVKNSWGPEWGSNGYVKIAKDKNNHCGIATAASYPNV

EBOV = conditions: rhesus monkey, in vivo
Cat G = Cat G (Homo sapiens, UniProt P08311); conditions: cited from earlier work
Chain of Cat G (P08311 21-244): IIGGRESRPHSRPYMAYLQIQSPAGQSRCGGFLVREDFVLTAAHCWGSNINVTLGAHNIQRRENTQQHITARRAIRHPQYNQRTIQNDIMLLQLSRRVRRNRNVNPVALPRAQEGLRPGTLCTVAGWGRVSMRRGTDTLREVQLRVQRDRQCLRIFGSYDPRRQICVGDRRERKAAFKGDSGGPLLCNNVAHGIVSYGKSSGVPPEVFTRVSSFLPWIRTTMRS

Cat D = Cat D (Homo sapiens, UniProt P07339); conditions: cited from earlier work
Chain of Cat D (P07339 65-412): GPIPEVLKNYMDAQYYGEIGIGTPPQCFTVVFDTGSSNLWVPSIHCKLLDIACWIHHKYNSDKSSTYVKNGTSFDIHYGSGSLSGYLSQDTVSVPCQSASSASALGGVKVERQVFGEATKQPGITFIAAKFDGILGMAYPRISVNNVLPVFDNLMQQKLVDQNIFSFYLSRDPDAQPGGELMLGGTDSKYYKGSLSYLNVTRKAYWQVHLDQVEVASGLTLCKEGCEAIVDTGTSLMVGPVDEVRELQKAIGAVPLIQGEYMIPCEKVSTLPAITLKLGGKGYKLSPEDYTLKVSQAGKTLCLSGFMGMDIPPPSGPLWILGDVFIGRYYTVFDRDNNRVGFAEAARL

Calpain = conditions: cited from earlier work
Caspase 3-4 = conditions: cited from earlier work
Cat K [7] = target: Cat K (Macaca fascicularis, UniProt P61276); conditions: cited from earlier work
Chain of Cat K (Macaca fascicularis, UniProt P61276) (P61276 115-329): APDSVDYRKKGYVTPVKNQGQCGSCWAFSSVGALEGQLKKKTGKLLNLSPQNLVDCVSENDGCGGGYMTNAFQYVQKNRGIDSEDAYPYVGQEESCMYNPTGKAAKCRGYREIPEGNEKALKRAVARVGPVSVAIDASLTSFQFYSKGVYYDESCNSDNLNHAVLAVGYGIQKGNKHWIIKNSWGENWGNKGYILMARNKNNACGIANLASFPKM

Cat L [8] = conditions: cited from earlier work
Cat V (L2) [9] = conditions: cited from earlier work
Cat L [10] = target: Cat L (Rattus norvegicus, UniProt P07154); conditions: cited from earlier work
Chain of Cat L (Rattus norvegicus, UniProt P07154) (P07154 114-334): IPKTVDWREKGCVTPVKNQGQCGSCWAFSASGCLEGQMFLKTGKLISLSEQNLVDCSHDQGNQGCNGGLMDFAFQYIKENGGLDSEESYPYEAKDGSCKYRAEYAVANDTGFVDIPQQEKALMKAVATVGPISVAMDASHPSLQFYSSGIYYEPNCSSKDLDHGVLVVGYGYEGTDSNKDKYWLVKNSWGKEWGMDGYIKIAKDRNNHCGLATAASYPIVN

Cat S = Cat S (Rattus norvegicus, UniProt Q02765); conditions: cited from earlier work
Chain of Cat S (Q02765 113-330): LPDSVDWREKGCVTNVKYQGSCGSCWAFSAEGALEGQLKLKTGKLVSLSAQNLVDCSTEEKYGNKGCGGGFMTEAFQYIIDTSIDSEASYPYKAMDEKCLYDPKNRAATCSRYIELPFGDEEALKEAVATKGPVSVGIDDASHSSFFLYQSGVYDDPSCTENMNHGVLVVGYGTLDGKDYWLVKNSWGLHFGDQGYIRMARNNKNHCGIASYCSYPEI

Cat K [11] = target: Cat K (Mus musculus, UniProt P55097); conditions: cited from earlier work
Chain of Cat K (Mus musculus, UniProt P55097) (P55097 115-329): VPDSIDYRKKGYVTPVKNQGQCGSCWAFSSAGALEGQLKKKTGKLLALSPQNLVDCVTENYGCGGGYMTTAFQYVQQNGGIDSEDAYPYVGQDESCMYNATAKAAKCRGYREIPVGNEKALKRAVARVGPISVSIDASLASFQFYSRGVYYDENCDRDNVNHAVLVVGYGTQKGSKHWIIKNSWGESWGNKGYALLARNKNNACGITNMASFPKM

Cat L [12] = target: Cat L (Mus musculus, UniProt P06797); conditions: cited from earlier work
Chain of Cat L (Mus musculus, UniProt P06797) (P06797 114-334): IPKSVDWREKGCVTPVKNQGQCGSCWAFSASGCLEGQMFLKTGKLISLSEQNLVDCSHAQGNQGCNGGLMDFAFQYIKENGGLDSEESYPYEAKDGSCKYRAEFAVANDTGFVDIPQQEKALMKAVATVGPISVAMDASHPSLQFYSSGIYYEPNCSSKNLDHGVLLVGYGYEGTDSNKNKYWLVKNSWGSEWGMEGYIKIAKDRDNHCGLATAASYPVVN

in vitro [13] = conditions: Syrian hamster
[14] = Vero C1008, read-out: Antiviral IC50 (std-incubation)
[15] = Vero C1008, read-out: pre-incubation IC50

CCC(CC)COC(=O)[C@H](C)N[P@](=O)(OC[C@H]1O[C@@](C#N)(c2ccc3c(N)ncnn23)[C@H](O)[C@@H]1O)Oc1ccccc1 [Remdesivir]
Selectivity Index CC50/IC50 (SARS-CoV-1 (Toronto 2)): >4.0 | IC50 (SARS-CoV-1 (Toronto 2)): 7420 nM | Selectivity Index CC50/IC50 [1]: >7.2 | IC50 [1]: 4150 nM | Selectivity Index CC50/IC50 (MERS (EMC/2012)): >2.4 | IC50 (MERS (EMC/2012); [14]): 12500 nM | IC50 ([2]; read-out: Exp. 1 IC50): 1940 nM | IC50 ([2]; read-out: Exp. 2 IC50): 2150 nM | CC50 (in vitro [3]): > 30000 nM

CCN(CC)CCCC(C)Nc1ccnc2cc(Cl)ccc12 (centres unmarked) [Chloroquine]
IC50 (SARS-CoV-1 (Toronto 2)): 2020 nM | IC50 [1]: 3710 nM | IC50 (MERS (EMC/2012); [14]): 21000 nM | CC50 (in vitro [3]): > 30000 nM

CC(C)C[C@H](NC(=O)c1cc2ccccc2o1)C(=O)N[C@H]1CC[C@@H](C)N(S(=O)(=O)c2ccccn2)CC1=O [relacatib, N-((2S)-4-methyl-1-(((4S,7R)-7-methyl-3-oxo-1-(pyridin-2-ylsulfonyl)azepan-4-yl)amino)-1-oxopentan-2-yl)benzofuran-2-carboxamide]
EC50 (EBOV (Kikwit)): 2890 nM | EC50 (EBOV (Makona) [4]): 360 nM | EC90 (EBOV (Makona) [5]): 9710 nM | EC50 (MARV): 250 nM | EC50 (MERS-CoV): 40 nM | EC50 (NiV): 15 nM | EC50 (LASV): > 100000 nM | EC50 (HTNV): > 100000 nM | EC50 (WNV): > 100000 nM | IC50 (SARS-CoV-1 (Toronto 2)): 230 nM | IC50 [1]: 20 nM | IC50 (MERS (EMC/2012); [14]): 600 nM | IC50 (MERS (EMC/2012); [15]): 680 nM | SARS-CoV-2 activity in Calu-3 cells, expression of N protein [2]: no measurable SARS-CoV-2 activity | IC50 ([2]; read-out: Exp. 1 IC50): > 50000 nM | IC50 ([2]; read-out: Exp. 2 IC50): > 50000 nM | SARS-CoV-2 antiviral activity, titer by plaque assay (FIG. 8A, words) (SARS-CoV-2): essentially no activity | Ki (Cat V (L2) [6]): 0.05 nM | Ki (Cat V (L2) [6]; read-out: Ki, app): 0.053 nM | GI pathology in colon (FIG. 5C, words) (EBOV): enhanced GI pathology noted in colon | Kaplan-Meier survival, P treatment versus vehicle control (Log-rank Mantel-Cox test) (EBOV; po): 0.0565 | Ki (Cat G): > 30000 nM | Ki (Cat D): > 10000 nM | Ki (Calpain): 310 nM | Ki (Caspase 3-4): > 10000 nM | Ki (Cat K [7]): 0.04 nM | Ki (Cat L [8]): 0.3 nM | Ki (Cat V (L2) [9]): 0.7 nM | Ki (Cat L [10]): 0.2 nM | Ki (Cat S): 5.5 nM | Ki (Cat K [11]): 15 nM | Ki (Cat L [12]): 0.2 nM | CC50 (in vitro [13]): > 20000 nM | CC50 (in vitro [3]): > 50000 nM

CN(C)C(=O)COC(=O)Cc1ccc(OC(=O)c2ccc(NC(=N)N)cc2)cc1 [camostat]
Selectivity Index CC50/IC50 (SARS-CoV-1 (Toronto 2)): >1 | antiviral activity (SARS-CoV-1 (Toronto 2)): no antiviral activity | IC50 (SARS-CoV-1 (Toronto 2)): > 50000 nM | Selectivity Index CC50/IC50 [1]: >1 | antiviral activity [1]: no antiviral activity | IC50 [1]: > 50000 nM | Selectivity Index CC50/IC50 (MERS (EMC/2012)): >1 | antiviral activity (MERS (EMC/2012)): no antiviral activity | IC50 (MERS (EMC/2012); [14]): > 50000 nM | IC50 (MERS (EMC/2012); [15]): > 50000 nM | SARS-CoV-2 activity in Calu-3 cells, expression of N protein [2]: reduced the expression of N protein | IC50 ([2]; read-out: Exp. 1 IC50): 160 nM | IC50 ([2]; read-out: Exp. 2 IC50): 290 nM | SARS-CoV-2 antiviral activity, titer by plaque assay (FIG. 8A, words) (SARS-CoV-2): dose-dependent SARS-CoV-2 antiviral activity | CC50 (in vitro [3]): > 50000 nM
